In ChEMBL document CHEMBL1201862, “PubChem BioAssay data set” (2004):
Active and inactive are the calls of the source.

What was measured:
[1] = molecular target: Disintegrin and metalloproteinase domain-containing protein 17 (Homo sapiens, UniProt P78536); assay: exosite inhibitors of ADAM17, dose response, biochemical (AID 743260)
[2] = ADAM10 protease inhibitors, dose response, selectivity assay for ADAM17 exosite inhibitor project, biochemical, FRET peptide substrate, recombinant human ADAM10 (AID 743259);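 further: ADAM10 enzyme cleaving a FRET peptide substrate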
[3] = molecular target: Long-chain-fatty-acid--AMP ligase FadD28 (Mycobacterium tuberculosis, UniProt P9WQ59); assay: Fluorescence polarization aasay to screen for inhibitors that compete for the binding of FadD28 to a bisubstrate Measured in Biochemical System Using Plate Reader - 2147-01_Inhibitor_Dose_CherryPick_Activity.; type: functional, Mycobacterium tuberculosis H37Rv
Paired box protein Pax-8 = Paired box protein Pax-8 (Homo sapiens, UniProt Q06710); assay: inhibitors of PAX8-driven TPO luciferase reporter, dose response, RMG-I cells, cherry-pick (AID 687027); type: functional, cell-based;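 further: luciferase reporter driven by Pax8 target thyroperoxidase promoter measured by SteadyGlo luminescence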
[4] = NIH:OVCAR-3 ovarian cancer cell cytotoxicity, dose response, PAX8 inhibitor project, plate reader, dry powder samples (AID 743044); type: functional, cell-based
[5] = cytotoxicity in OVCAR8 ovarian cancer cells, dose response, PAX8 project, cell-based, plate reader, dry powder samples (AID 743197); type: functional; conditions: OVCAR-8
[6] = molecular target: ADP-ribosylation factor GTPase-activating protein 1 (Rattus norvegicus, UniProt Q62848); assay: Fluorescence polarization-based biochemical high throughput dose response screening assay to identify inhibitors of ADP-ribosylation factor GTPase activating protein 1 (ARFGAP1).; type: functional
[7] = molecular target: Arf-GAP with SH3 domain, ANK repeat and PH domain-containing protein 1 (Homo sapiens, UniProt Q9ULH1); type: functional;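 further: biochemical fluorescence polarization dose–response screen measuring inhibition of ASAP1; ASAP1 GAP domain stimulating GTP hydrolysis by truncated human ARF1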
[8] = molecular target: Bifunctional protein GlmU (Mycobacterium tuberculosis, UniProt P9WMN3); assay: Inhibitors of Mycobacterial Glucosamine-1-phosphate acetyl transferase (GlmU). Secondary screen.; set-up: species or system Mycobacterium tuberculosis H37Rv
[9] = molecular target: Photoreceptor-specific nuclear receptor (Homo sapiens, UniProt Q9Y5X4); type: functional, cell-based;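 further: CHO-S cells with Gal4-NCOR and VP16-NR2E3 two-hybrid luciferase reporter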
[10] = HeLa cell cytotoxicity, dose response, cytotoxicity control for MgcRacGAP inhibitor project (AID 624300); type: functional
[11] = molecular target: T1, Rac GTPase-activating protein 1 (Homo sapiens, UniProt Q9H0H5); assay: MgcRacGAP GTPase-activating activity inhibitors, confirmation, biochemical, ADP Hunter fluorescence, primary and confirmatory (AID 624330); type: functional
T1 sequence (Q9H0H5 whole entry): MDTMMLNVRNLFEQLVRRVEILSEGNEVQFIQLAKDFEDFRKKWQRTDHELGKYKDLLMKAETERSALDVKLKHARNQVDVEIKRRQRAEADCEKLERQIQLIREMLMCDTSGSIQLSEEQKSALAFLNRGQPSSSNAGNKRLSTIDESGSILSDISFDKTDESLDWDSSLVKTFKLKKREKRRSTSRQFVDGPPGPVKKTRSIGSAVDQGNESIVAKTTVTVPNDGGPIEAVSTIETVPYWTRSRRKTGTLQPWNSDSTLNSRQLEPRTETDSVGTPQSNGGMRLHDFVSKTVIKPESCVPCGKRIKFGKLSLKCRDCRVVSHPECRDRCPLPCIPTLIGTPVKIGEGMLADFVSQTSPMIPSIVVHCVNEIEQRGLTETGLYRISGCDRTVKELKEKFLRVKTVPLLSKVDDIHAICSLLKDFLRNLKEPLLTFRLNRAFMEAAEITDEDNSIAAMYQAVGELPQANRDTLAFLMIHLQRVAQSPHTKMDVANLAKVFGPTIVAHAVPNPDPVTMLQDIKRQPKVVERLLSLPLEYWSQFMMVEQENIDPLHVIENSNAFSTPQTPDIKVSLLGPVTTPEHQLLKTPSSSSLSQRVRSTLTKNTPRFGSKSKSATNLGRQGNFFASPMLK

[12] = molecular target: RNA-editing ligase 1, mitochondrial (Trypanosoma brucei brucei, UniProt P86926); assay: TbREL1 ligase inhibitors, dose response, biochemical, fluorescence, Trypanosoma brucei (AID 1117295); type: functional
[13] = P. falciparum Dd2 growth inhibitors, dose response, SYBR Green, cherry-picked samples (AID 1159567); type: functional, cell-based
[14] = HepG2 cell cytotoxicity, dose response, cytotoxicity control, cherry-picked samples (AID 1159577); type: functional, cell-based
[15] = P. falciparum 3D7-ScDHODH growth inhibitors, dose response, SYBR Green, dry powder samples (AID 1159570); type: functional, cell-based;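 further: parasite growth measured after 72 hours of compound exposure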
[16] = P. falciparum Dd2 growth inhibitors, dose response, SYBR Green, dry powder samples (AID 1159566); type: functional, cell-based;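 further: potency for growth inhibition with lower SYBR green DNA signal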
[17] = P. falciparum ATP4 D1247Y mutant growth inhibitors, dose response, NITD609-resistant line, SYBR Green, dry powder (AID 1159571); type: functional, cell-based;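 further: parasites synchronized at ring stage by sorbitol before testing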
[18] = Concentration-dependent survival of SW480 colon cancer line, luminescence detection with CellTiter-Glo, half-maximal inhibitory concentration (AID 1117338); type: functional
[19] = RKO cell viability reduction, dose response, CellTiter-Glo luminescence (AID 1117322); type: functional
[20] = cytotoxicity toward HCT116 cells – cell-based, CellTiter-Glo luminescence, IC50, dose response (AID 1117332); type: functional; conditions: HCT-116
[21] = SNU-C1 cell viability reduction, dose response, CellTiter-Glo luminescence (AID 1117323); type: functional, cell-based
[22] = cytotoxicity toward Colo320 cells – cell-based, CellTiter-Glo luminescence, IC50, dose response (AID 1117334); type: functional; conditions: COLO 320
[23] = cytotoxicity toward HT-29 cells – cell-based, CellTiter-Glo luminescence, IC50, dose response (AID 1117330); type: functional
[24] = CellTiter-Glo luminescent dose response of DLD-1 viability loss (AID 1117352); type: functional
[25] = HCT116 cell viability decrease, GSK3B pretreatment – CellTiter-Glo, IC50, dose response (AID 1117339); type: functional; conditions: HCT-116

Long-chain-fatty-acid--AMP ligase FadD28, sequence (P9WQ59 whole entry): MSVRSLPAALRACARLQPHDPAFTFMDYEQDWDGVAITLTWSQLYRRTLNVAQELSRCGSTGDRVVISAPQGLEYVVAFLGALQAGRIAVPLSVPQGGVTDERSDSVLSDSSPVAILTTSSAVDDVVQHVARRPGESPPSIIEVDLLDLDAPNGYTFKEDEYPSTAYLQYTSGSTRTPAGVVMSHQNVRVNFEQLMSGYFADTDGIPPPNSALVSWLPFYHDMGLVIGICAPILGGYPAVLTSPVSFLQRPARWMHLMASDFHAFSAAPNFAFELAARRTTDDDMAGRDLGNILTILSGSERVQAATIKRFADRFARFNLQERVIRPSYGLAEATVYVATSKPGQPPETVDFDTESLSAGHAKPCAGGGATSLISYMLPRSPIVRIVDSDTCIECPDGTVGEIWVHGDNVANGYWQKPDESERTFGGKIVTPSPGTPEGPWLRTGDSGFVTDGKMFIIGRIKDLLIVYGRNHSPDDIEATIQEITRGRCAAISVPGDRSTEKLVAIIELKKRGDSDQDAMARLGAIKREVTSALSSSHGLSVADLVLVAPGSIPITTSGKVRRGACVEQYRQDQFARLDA
Bifunctional protein GlmU, sequence (P9WMN3 whole entry, the tested form may be a part): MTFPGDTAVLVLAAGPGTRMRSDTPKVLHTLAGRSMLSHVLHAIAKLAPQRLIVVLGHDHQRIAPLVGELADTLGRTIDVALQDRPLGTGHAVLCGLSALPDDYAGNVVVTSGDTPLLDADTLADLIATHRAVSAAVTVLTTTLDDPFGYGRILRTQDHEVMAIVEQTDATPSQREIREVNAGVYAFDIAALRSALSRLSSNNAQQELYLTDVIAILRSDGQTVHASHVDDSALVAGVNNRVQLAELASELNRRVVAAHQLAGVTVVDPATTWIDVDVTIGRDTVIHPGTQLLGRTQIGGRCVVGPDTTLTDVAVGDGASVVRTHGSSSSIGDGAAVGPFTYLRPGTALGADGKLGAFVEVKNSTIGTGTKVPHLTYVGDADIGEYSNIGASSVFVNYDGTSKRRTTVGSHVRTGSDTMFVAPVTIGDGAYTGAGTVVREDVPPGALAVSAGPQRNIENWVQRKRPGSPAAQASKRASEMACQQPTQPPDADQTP
Photoreceptor-specific nuclear receptor, sequence (Q9Y5X4 whole entry, the tested form may be a part): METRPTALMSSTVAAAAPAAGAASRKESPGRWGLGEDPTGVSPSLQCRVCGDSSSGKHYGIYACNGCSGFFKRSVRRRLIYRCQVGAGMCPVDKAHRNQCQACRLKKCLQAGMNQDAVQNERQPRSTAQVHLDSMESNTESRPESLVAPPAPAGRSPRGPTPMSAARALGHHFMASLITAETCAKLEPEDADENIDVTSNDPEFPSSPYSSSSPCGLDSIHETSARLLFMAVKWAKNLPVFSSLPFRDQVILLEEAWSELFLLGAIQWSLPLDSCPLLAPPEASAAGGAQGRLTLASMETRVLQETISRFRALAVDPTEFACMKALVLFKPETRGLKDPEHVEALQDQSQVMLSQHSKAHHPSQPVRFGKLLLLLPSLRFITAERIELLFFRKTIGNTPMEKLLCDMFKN
RNA-editing ligase 1, mitochondrial, sequence (P86926 whole entry): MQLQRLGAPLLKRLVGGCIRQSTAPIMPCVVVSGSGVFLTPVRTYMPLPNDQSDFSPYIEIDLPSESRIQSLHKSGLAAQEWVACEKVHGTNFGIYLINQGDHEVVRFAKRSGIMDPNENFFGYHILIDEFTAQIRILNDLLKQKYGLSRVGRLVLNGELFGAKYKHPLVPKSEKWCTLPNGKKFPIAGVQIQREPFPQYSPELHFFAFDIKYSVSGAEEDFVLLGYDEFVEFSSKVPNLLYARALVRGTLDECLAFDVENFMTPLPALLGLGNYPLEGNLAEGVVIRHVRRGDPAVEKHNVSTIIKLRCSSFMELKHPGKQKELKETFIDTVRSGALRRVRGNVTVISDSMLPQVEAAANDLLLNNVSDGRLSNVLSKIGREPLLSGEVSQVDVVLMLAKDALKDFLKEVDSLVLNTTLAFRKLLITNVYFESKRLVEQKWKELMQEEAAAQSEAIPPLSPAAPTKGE
Arf-GAP with SH3 domain, ANK repeat and PH domain-containing protein 1, sequence (Q9ULH1 whole entry, the tested form may be a part): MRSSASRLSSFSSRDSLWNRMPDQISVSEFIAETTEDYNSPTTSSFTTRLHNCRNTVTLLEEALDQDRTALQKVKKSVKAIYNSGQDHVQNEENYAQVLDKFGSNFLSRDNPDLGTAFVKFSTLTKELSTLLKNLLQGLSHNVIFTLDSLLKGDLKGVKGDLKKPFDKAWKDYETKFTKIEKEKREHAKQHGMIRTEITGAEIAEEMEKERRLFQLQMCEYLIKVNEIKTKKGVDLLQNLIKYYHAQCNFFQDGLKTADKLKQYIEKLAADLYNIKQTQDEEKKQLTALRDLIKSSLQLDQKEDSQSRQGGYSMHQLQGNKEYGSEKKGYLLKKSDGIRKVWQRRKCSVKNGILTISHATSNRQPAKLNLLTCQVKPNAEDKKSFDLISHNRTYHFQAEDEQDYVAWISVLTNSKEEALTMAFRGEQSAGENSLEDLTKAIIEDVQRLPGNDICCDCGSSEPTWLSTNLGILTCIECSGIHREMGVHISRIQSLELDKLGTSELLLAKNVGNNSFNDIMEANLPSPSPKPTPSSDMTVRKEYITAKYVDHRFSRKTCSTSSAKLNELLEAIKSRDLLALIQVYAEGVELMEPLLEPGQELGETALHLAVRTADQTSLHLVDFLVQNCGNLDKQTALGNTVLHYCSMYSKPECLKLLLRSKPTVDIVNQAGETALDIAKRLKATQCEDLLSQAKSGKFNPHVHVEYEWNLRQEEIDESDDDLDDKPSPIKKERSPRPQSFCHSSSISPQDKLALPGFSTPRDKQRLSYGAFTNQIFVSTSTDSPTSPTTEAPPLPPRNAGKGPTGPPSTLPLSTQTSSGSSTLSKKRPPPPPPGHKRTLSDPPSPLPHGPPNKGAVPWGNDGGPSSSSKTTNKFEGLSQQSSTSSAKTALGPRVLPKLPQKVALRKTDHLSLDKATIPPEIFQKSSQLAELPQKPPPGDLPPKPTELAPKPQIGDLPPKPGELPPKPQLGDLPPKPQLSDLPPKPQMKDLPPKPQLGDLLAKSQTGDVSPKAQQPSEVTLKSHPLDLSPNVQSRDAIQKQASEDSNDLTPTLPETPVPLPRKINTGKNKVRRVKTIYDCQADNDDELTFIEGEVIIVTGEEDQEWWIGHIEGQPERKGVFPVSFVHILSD
ADP-ribosylation factor GTPase-activating protein 1, sequence (Q62848 whole entry, the tested form may be a part): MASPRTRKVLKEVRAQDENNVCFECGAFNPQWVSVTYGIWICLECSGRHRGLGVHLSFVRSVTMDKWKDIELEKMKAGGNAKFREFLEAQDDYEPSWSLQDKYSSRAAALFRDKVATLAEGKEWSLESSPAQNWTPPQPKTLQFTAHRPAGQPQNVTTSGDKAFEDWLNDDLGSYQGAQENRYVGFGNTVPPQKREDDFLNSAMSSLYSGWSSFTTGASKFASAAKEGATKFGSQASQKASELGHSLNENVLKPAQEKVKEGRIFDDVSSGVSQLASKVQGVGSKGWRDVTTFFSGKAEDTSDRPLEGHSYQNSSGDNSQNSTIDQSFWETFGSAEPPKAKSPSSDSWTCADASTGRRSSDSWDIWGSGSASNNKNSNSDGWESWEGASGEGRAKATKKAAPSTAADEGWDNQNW
Paired box protein Pax-8, sequence (Q06710 whole entry): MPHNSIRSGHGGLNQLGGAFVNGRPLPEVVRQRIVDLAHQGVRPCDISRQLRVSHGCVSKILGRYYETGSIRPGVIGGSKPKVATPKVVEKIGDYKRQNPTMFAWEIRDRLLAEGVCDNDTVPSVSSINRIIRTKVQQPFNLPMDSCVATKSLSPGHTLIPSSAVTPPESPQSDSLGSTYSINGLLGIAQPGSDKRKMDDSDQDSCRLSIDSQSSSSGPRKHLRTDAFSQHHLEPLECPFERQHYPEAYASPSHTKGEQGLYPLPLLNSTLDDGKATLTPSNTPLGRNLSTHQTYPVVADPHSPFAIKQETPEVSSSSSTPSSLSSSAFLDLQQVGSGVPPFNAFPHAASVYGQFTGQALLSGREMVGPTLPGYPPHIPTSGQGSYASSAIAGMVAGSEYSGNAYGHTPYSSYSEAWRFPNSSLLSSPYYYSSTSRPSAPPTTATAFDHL
Disintegrin and metalloproteinase domain-containing protein 17, sequence (P78536 whole entry, the tested form may be a part): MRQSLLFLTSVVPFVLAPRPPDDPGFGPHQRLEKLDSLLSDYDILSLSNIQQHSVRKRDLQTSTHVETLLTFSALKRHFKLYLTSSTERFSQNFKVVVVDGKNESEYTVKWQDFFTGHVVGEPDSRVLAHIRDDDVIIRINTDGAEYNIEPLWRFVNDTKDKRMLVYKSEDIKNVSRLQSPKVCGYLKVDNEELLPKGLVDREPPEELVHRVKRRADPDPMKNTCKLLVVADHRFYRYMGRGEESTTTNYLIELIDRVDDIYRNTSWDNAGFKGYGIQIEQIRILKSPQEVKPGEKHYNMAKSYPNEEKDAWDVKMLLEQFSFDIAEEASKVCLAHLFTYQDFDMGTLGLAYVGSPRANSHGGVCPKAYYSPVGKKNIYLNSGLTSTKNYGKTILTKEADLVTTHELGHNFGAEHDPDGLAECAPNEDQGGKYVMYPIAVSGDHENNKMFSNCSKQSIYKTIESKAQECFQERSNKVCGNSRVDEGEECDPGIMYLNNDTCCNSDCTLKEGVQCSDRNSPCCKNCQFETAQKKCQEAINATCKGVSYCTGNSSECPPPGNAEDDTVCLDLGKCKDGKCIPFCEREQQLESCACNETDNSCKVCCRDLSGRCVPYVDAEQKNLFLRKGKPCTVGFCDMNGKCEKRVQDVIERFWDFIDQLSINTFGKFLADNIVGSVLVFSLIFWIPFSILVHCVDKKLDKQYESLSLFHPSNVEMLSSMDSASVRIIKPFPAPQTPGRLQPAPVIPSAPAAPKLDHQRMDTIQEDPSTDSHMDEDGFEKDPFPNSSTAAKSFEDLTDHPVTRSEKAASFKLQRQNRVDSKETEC

**Q.** What does the source list for `CCc1nc2ccc(C(=O)Nc3ccc4c(c3)OCC(=O)N4)cn2c1N(CC)Cc1cccc(Br)c1`?
**A.** IC50 [1]: > 69.5 µM (inactive); IC50 [2]: > 69.5 µM (inactive)

**Q.** For `Cn1c(=O)c2cc(NC(=S)NC3CCCCC3)ccc2n1Cc1ccc(Cl)cc1`, which AC50 [3] is on record?
**A.** The AC50 was 58 µM (active).

**Q.** Which AC50 [3] does the source give for `COc1cc2c(cc1NC(=O)c1ccccc1-c1ccccc1C(=O)O)-c1ccccc1C2` here?
**A.** Its AC50 is > 100 µM (inactive).

**Q.** Which results are given for `C[C@H](CO)N1C[C@H](C)[C@@H](CN(C)Cc2ccc(Cl)c(Cl)c2)Oc2ccc(NS(=O)(=O)c3ccccc3)cc2CC1=O`?
**A.** AC50 (Paired box protein Pax-8): 9.45 µM (active); AC50 [4]: 39.7 µM (active); AC50 [5]: 67.9 µM (active)

**Q.** Which IC50 [6] does the source give for `O=C(NCc1ccncc1)C(=O)N/N=C/c1ccc(OCc2ccccc2)cc1` here?
**A.** The IC50 was 10.3 µM (inactive).

**Q.** What about the IC50 [7] of the same compound?
**A.** Its IC50 is 13.2 µM (inactive).

**Q.** With `Nc1nonc1C(=O)N/N=C/c1ccc(-c2cccc(C(=O)O)c2)o1` as the compound, how does the IC50 [8] read?
**A.** Its IC50 is 188 µM (active).

**Q.** Which IC50 [9] does the source give for `C[C@H]1CCC/C=C/[C@@H]2C[C@H](O)C[C@H]2[C@H](O)[C@H]([S+]([O-])c2ccc(O)cc2)CC(=O)O1` (stereo partly drawn) here?
**A.** Its IC50 is 2.05 µM (active).

**Q.** And the CC50 [10]?
**A.** The CC50 was 4.03 µM (active).

**Q.** What about the IC50 [11] of the same compound?
**A.** Its IC50 is 231 µM (active).

**Q.** With `C=CCNC1=NC(c2ccccc2C(F)(F)F)C(C(=O)OC)=C(C)N1Cc1ccc(C(F)(F)F)cc1` (stereo not drawn) as the compound, how does the IC50 [12] read?
**A.** The IC50 was > 96.6 µM (inactive).

**Q.** Which AC50 [13] does the source give for `CCS(=O)(=O)N1CCCCN2[C@H](C1)[C@@H](c1ccc(C#Cc3ccccc3OC)cc1)[C@@H]2CO` here?
**A.** The AC50 was 4.67 µM (active).

**Q.** What about the AC50 [14] of the same compound?
**A.** Its AC50 is > 39 µM (inactive).

**Q.** With `COc1ccc2c3c(n(C)c2c1)[C@H](CO)NCC31CCN(Cc2ccc(Cl)cc2)CC1` as the compound, how does the AC50 [13] read?
**A.** The AC50 was 0.504 µM (active).

**Q.** What about the AC50 [14] of the same compound?
**A.** The AC50 was 17.7 µM (active).

**Q.** Which results are given for `COc1ccc(-c2ccccc2[C@H]2[C@@H](C#N)N(C(=O)NC(C)C)[C@H]2CO)cc1`?
**A.** AC50 [15]: 2.01 µM (active); AC50 [13]: 2.04 µM (active); AC50 [16]: 2.21 µM (active); AC50 [17]: 4.81 µM (active)

**Q.** Which results are given for `O=C(O)CCC(=O)OC[C@@H](NC(=O)C(Cl)Cl)[C@H](O)c1ccc([N+](=O)[O-])cc1` [CHLORAMPHENICOL SODIUM SUCCINATE]?
**A.** IC50 [18]: > 20 µM (inactive); IC50 [19]: > 20 µM (inactive); IC50 [20]: > 20 µM (inactive); IC50 [21]: > 20 µM (inactive); IC50 [22]: > 20 µM (inactive); IC50 [23]: > 20 µM (inactive); IC50 [24]: > 20 µM (inactive); IC50 [25]: > 20 µM (inactive)

**Q.** Which results are given for `CCCn1cnc2c1c(=O)n(CCCCC(C)=O)c(=O)n2C` [PROPENTOFYLLINE]?
**A.** IC50 [18]: > 20 µM (inactive); IC50 [19]: > 20 µM (inactive); IC50 [20]: > 20 µM (inactive); IC50 [21]: > 20 µM (inactive); IC50 [22]: > 20 µM (inactive); IC50 [23]: > 20 µM (inactive); IC50 [24]: > 20 µM (inactive); IC50 [25]: > 20 µM (inactive)
